Data on 9 compounds can be found in patent US20060160847A1, “2,4-Dihalogen-6-(c2-c3alkyl)-phenyl substituted tetramic acid derivatives” (priority 2003, published 2006).

Each structure is given as a SMILES string.

What all share (format): in vivo
For assay [1], the system named is cotton aphids (Aphis gossypii). As to the kind of experiment: Aphis gossypii test. The conditions noted are these: active compound concentration 200 ppm, infested cotton leaves dipped. How it is done:
(§1) Aphis Gossypii Test [table] To produce a suitable preparation of active compound, 1 part by weight of active compound is mixed with the stated amounts of solvent and emulsifier, and the concentrate is diluted with emulsifier-containing water to the desired concentration. Cotton leaves (Gossypium hirsutuni) which are heavily infested by cotton aphids (Aphis gossypii) are treated by being dipped into the preparation of active compound of the desired concentration. After the desired period of time, the kill in % is determined. 100% means that all aphids have been killed; 0% means that none of the aphids have been killed.

The test system of assay [2] is Test plants. As to the kind of experiment: Post-emergence test. The note with it: greenhouse. How it is done: To produce a suitable preparation of active compound, 1 part by weight of active compound is mixed with the stated amount of solvent, the stated amount of emulsifier is added and the concentrate is diluted with water to the desired concentration.
Test plants of a height of 5-15 cm are sprayed with the preparation of active compounds such that the particular amounts of active compound desired are applied per unit area. The concentration of the spray liquor is chosen such that the particular amounts of active compound desired are applied in 1000 l of water/ha.
After three weeks, the degree of damage to the plants is rated in % damage in comparison to the development of the untreated control.
0%=no effect (like untreated control)

Assay [3] has as its system green peach aphid (Myzus persicae). Nature of the assay: Myzus test. The conditions noted are these: infested cabbage leaves dipped. The method, then:
as §1, with “Myzus” for “Aphis Gossypii”, “Cabbage” for “Cotton”, “(Brassica oleracea)” for “(Gossypium hirsutuni)”, “the green peach aphid (Myzus persicae)” for “cotton aphids (Aphis gossypii)”

The test system of assay [4] is Test plants. Nature of the assay: Pre-emergence test. The conditions noted are these: greenhouse. The method, then: Pre-Emergence Test [[[…]]] To produce a suitable preparation of active compound, 1 part by weight of active compound is mixed with the stated amount of solvent, the stated amount of emulsifier is added and the concentrate is diluted with water to the desired concentration. Seeds of the test plants are sown in normal soil. After about 24 hours, the soil is sprayed with the preparation of active compound such that the particular amounts of active compound desired are applied per unit area. The concentration of the spray liquor is chosen such that the particular amounts of active compound desired are applied in 1000 l of water/ha. After three weeks, the degree of damage to the plants is rated in % damage in comparison to the development of the untreated control. The figures denote: 0%=no effect (like untreated control) 100%=total destruction

In assay [5] the test system is white fly (Bemisia tabaci) eggs, larvae and puparia. As to the kind of experiment: Bemisia test. The conditions noted are these: active compound concentration 40 ppm, infested cotton plants sprayed. How it is done:
Bemisia Test [table] To produce a suitable preparation of active compound, 1 part by weight of active compound is mixed with the stated amounts of solvent and emulsifier, and the concentrate is diluted with water to the desired concentration. Cotton plants (Gossypium hirsutum) which are infested by white fly (Bemisia tabaci) eggs, larvae and puparia are sprayed with the preparation of active compound of the desired concentration. After the desired period of time, the kill in % is determined. 100% means that all animals have been killed; 0% means that none of the animals have been killed.

In assay [6] the test system is green rice leaf hopper (Nephotettix cincticeps). Nature of the assay: Nephotettix test. The note with it: rice seedlings dipped. How it is done:
(§2) To produce a suitable preparation of active compound, 1 part by weight of active compound is mixed with the stated amounts of solvent and emulsifier, and the concentrate is diluted with emulsifier-containing water to the desired concentration.
Rice seedlings (Oryza satina) are treated by being dipped into the preparation of active compound of the desired concentration and are populated wraith the green rice leaf hopper (Nephotettix cincticeps) while the leafs are still moist.
After the desired period of time, the kill in % is determined. 100% means that all leaf hoppers have been killed; 0% means that none of the leaf hoppers have been killed.

Assay [7] deals with larvae of the mustard beetle (Phaedon cochleariae). As to the kind of experiment: Phaedon larvae test. The conditions noted are these: 100 ppm active compound, Phaedon cochleariae larvae on dipped cabbage leaves. How it is done: Phaedon Larvae Test [[[…]]] To produce a suitable preparation of active compound, 1 part by weight of active compound is mixed with the stated amounts of solvent and emulsifier, and the concentrate is diluted with emulsifier-containing water to the desired concentration. Cabbage leaves (Brassica oleracea) are treated by being dipped into the preparation of active compound of the desired concentration and are populated with larvae of the mustard beetle (Phaedon cochleariae) while the leaves are still moist. After the desired period of time, the kill in % is determined. 100% means that all beetle larvae have been killed; 0% means that none of the beetle larvae have been killed.

Assay [8] deals with greenhouse red spider mite (Tetranychus urticae). Nature of the assay: Tetranychus test (OP-resistant/dip treatment). The note with it: 1.6 ppm active compound, Tetranychus urticae on dipped bean plants. How it is done:
Tetranychus Test (OP-Resistant/Dip Treatment)
as §2
Bean plants (Phaseolus vulgaris) which are heavily infested by all stages of the greenhouse red spider mite (Tetranychus urticae) are dipped into a preparation of active compound of the desired concentration.
After the desired period of time, the effect in % is determined. 100% means that all spider mites have been killed; 0% means that none of the spider mites have been killed.

The mark [9] stands for this setting: active compound concentration 8 ppm.

Take `CCc1cc(Cl)cc(Cl)c1C1=C(O)C2(CCC(C)CC2)NC1=O` (single isomer, unassigned) [Ex. I-a-2]: the “Kill rate in % after 6^d” value in assay [1] is 90%. Also, in the assay on Test plants [2] (125 g of a.i./ha), the “% damage, Bromus” value amounted to 90%; the “% damage, Echinochloa” value is listed as 100%; the “% damage, Lolium” value is 100%; the “% damage, Sorghum” value turned out to be 100%. Further, the “% damage, cotton” value in the assay on Test plants [2] (125 g of a.i./ha, cotton) is 0%. Besides, the “Kill rate in % after 6^d” value in assay [3] (setting [9]) was 95%.

As to `CCc1cc(Cl)cc(Cl)c1C1=C(O)C2(CCC(OC)CC2)NC1=O` (single isomer, unassigned) [Ex. I-a-3], in the assay on Test plants [2] (250 g of a.i./ha), the “% damage, Alopecurus” value turned out to be 100%; the “% damage, Avena fatua” value was 100%; the “% damage, Sinapis” value is recorded as 80%. In assay [3] (setting [9]), the “Kill rate in % after 6^d” value worked out at 85%. Further, in the assay with Test plants [4] (30 g of a.i./ha), the “% damage, Alopecurus” value is 100%; the “% damage, Avena fatua” value came out at 70%; the “% damage, Digitaria” value turned out to be 100%; the “% damage, Lolium” value stood at 100%. Also, in the assay on Test plants [4] (30 g of a.i./ha, Setaria), the “% damage, Setaria” value stood at 100%. Also, the “% damage, cotton” value with Test plants [4] (30 g of a.i./ha, cotton) is 0%. In addition, in the assay on Test plants [4] (30 g of a.i./ha, sugar beet), the “% damage, sugar beet” value worked out at 0%.

Regarding `CCc1cc(Br)cc(Cl)c1C1=C(O)C2(CCC(C)CC2)NC1=O` (single isomer, unassigned) [Ex. I-a-6], in the assay with Test plants [2] (60 g of a.i./ha), the “% damage, Abutilon” value was determined as 70%; the “% damage, Echinochloa” value stood at 95%; the “% damage, Lolium” value was found to be 90%; the “% damage, Setaria” value is 100%. Also, the “% damage, Sorghum” value in the assay on Test plants [2] (60 g of a.i./ha) is 90%. Further, in the assay with Test plants [4] (60 g of a.i./ha), the “% damage, Avena fatua” value is 90%; the “% damage, Echinochloa” value was determined as 100%; the “% damage, Lolium” value turned out to be 95%; the “% damage, soybean” value amounted to 0%. In addition, the “% damage, Veronica” value with Test plants [4] (60 g of a.i./ha, Veronica) is recorded as 100%. Also, in the assay on Test plants [4] (60 g of a.i./ha, wheat), the “% damage, wheat” value turned out to be 0%.

On to `CCc1cc(Br)cc(Cl)c1C1=C(O)C2(CCC(OC)CC2)NC1=O` (single isomer, unassigned) [Ex. I-a-7], for which, in the assay with Test plants [2] (250 g of a.i./ha), the “% damage, Abutilon” value amounted to 80% and the “% damage, sugar beet” value came to 0%. Further, in the assay with Test plants [2] (250 g of a.i./ha, Amaranthus), the “% damage, Amaranthus” value is reported as 70%. For the same compound, the “% damage, Cyperus” value in the assay with Test plants [2] (250 g of a.i./ha, Cyperus) was 80%. Also, the “Kill rate in % after 6^d” value in assay [3] (active compound concentration 1.6 ppm) amounted to 65%. Besides, in the assay on Test plants [4] (125 g of a.i./ha), the “% damage, Avena fatua” value came to 95%; the “% damage, Bromus” value was found to be 100%; the “% damage, Echinochloa” value amounted to 100%. Further, the “% damage, Matricaria” value with Test plants [4] (125 g of a.i./ha, Matricaria) is recorded as 80%.

`CCc1cc(Cl)cc(Br)c1C1=C(O)C2(CCC(OC)CC2)NC1=O` (single isomer, unassigned) [Ex. I-a-10]: in the assay on Test plants [2] (30 g of a.i./ha), the “% damage, Alopecurus” value is given as 95%; the “% damage, Avena fatua” value was 95%; the “% damage, Bromus” value came out at 90%; the “% damage, Lolium” value is given as 95%. In addition, in the assay on Test plants [2] (30 g of a.i./ha), the “% damage, Setaria” value is given as 100% and the “% damage, sugar beet” value was determined as 0%. Also, the “% damage, Digitaria” value with Test plants [2] (30 g of a.i./ha, Digitaria) came to 100%. Further, in the assay on Test plants [4] (125 g of a.i./ha), the “% damage, Alopecurus” value is 100%; the “% damage, Avena fatua” value amounted to 90%; the “% damage, Bromus” value is given as 90%; the “% damage, Digitaria” value is 100%. For the same compound, the “% damage, soybean” value with Test plants [4] (125 g of a.i./ha) was 0%.

As for `CCc1cc(Br)cc(Cl)c1C1=C(OC(=O)C(C)C)C2(CCC(C)CC2)NC1=O` (single isomer, unassigned) [Ex. I-b-2], the “Kill rate in % after 10^d” value in assay [5] was 100%. In addition, in the assay on Test plants [4] (30 g of a.i./ha), the “% damage, Digitaria” value was determined as 70%; the “% damage, Echinochloa” value was determined as 70%; the “% damage, Lolium” value turned out to be 95%; the “% damage, soybean” value turned out to be 0%. In the assay on Test plants [4] (30 g of a.i./ha, corn), the “% damage, corn” value turned out to be 0%.

In the case of `CCOCC(=O)OC1=C(c2c(Cl)cc(Br)cc2CC)C(=O)NC12CCC(C)CC2` (single isomer, unassigned) [Ex. I-b-3], the “Kill rate in % after 6^d” value in assay [6] (active compound concentration 0.1 ppm) is 40%. For the same compound, in assay [7], the “Kill rate in % after 7d” value was 100%.

On to `CCc1cc(Cl)cc(Cl)c1C1=C(O)C2(CCOCC2)NC1=O` [Ex. I-a-5], for which, in the assay with Test plants [2] (250 g of a.i./ha), the “% damage, Alopecurus” value is recorded as 95%; the “% damage, Avena fatua” value is recorded as 100%; the “% damage, Setaria” value turned out to be 100%; the “% damage, Sinapis” value was 70%.

`CCc1cc(Cl)cc(Br)c1C1=C(O)C(C)(C)NC1=O` [Ex. I-a-11]: the “Kill rate in % after 6^d” value in assay [6] (active compound concentration 10 ppm) was found to be 100%. Moreover, the “Kill rate in % after 14d” value in assay [8] was determined as 80%. Also, in the assay with Test plants [2] (250 g of a.i./ha), the “% damage, Alopecurus” value worked out at 100%; the “% damage, Setaria” value worked out at 100%; the “% damage, sugar beet” value was found to be 0%.
